ChEMBL document CHEMBL3507680, “University of Dundee, Gates Library screen for HepG2 cell viability”

Test: Human HepG2 cell viability assay in 384 well format
Type: toxicity, cell-based
Design: dose 125 nL, time 70.5 hour; concentration not given beside the values
Conditions: HepG2 cells, read-out: Inhibition

Compound	cytotoxicity at 70.5 h [%]
CCNc1nnc(SC(C(=O)NCc2cccnc2)C(C)C)s1 (stereo not drawn)	-14.3
N#Cc1ccc(NC2CCN(CC(F)F)CC2)c(F)c1	-15.5
N#Cc1ccc(NC2CCN(Cc3ccccn3)CC2)c(F)c1	-9.28
CC(C)C(Sc1cccs1)C(=O)NCc1cccnc1 (stereo not drawn)	-14.6
CSC(C)C(=O)NS(=O)(=O)c1ccc(F)c(C(F)(F)F)c1 (stereo not drawn)	22.2
O=C(NCCc1nncn1C1CC1)c1cc2ccccn2c1	-10.9
CC(C)(C)C(CCO)NC(=O)Nc1ccccc1 (stereo not drawn)	-9.49
COc1ccccc1CN(CC1CCCO1)C(=O)c1csnn1 (stereo not drawn)	-12.2
CCN(Cc1ccoc1)C(=O)C1CCN(C(=O)OC(C)(C)C)C1 (stereo not drawn)	18.9
Cc1nc(C2CN(Cc3ccc(F)cc3Br)CCO2)no1 (stereo not drawn)	-5.56
CCOCCN1CCN(CCOCC(F)(F)F)CC1	-8.54
CCOCCN(C)C(=O)Nc1cccc2c1CCN(CC)C2	10.2
CC(C)CC(NC(=O)CSc1ccc(F)c(Cl)c1)C(=O)O (stereo not drawn)	-18.4
O=S(=O)(NCc1ccc(S(=O)(=O)N2CCCC2)s1)c1ccc(Cl)cc1	-12.5
O=S(=O)(NCc1ccc(S(=O)(=O)N2CCCC2)s1)c1ccc(Cl)c(Cl)c1	-22.7
NC(=O)CNC(=O)c1ccc(CNCc2ccc(F)cc2F)cc1	-23.7
NC(=O)CNC(=O)c1ccc(CNCc2ccc(Cl)cc2Cl)cc1	-28
CN(C(=O)Cn1nnnc1C(C)(C)C)c1ccccc1	-19.5
Cn1c(CCN2CCN(c3ccc(O)cc3)CC2)nc2ccccc21	14.6
CC(C)c1noc(OCc2cccc(C#N)c2)n1	-11.8
CC(C)c1noc(OCc2cccc(S(=O)(=O)N(C)C)c2)n1	-17.9
O=C(NCCCc1nc(=O)[nH][nH]1)c1ccc(Cl)cn1	-15.2
Cc1cccc2c1C(=O)NC1(CCOCC1)N2	-13.5

Compound	cytotoxicity at 70.5 h [%]
O=S(=O)(Cc1ccc(F)c(Cl)c1)NCCOc1cccnc1	3.53
CCc1nc(CCNc2ccc(S(N)(=O)=O)cc2C#N)cs1	-21
CNS(=O)(=O)CCCN(C)Cc1cc(C)ccc1OC	-13.2
Cc1ccc(SC2CCCC2)c(C(=O)NCc2n[nH]c(=O)[nH]2)c1	-11.2
Fc1ccc(C(NCc2nnc(C3CC3)o2)C2CCC2)cc1 (stereo not drawn)	-4.6
COCC(=O)NC1(c2cccc(C(F)(F)F)c2)CCC1	-14.5
CN(CCN1CCOC1=O)CC(=O)Nc1ccc(Cl)c(Cl)c1	-20.1
CC(CNC(=O)c1ccn(-c2ccc(F)cc2)n1)Cn1cccn1 (stereo not drawn)	-22.8
Fc1ccc(C(NCc2nnc(-c3ccco3)o2)C2CCC2)cc1 (stereo not drawn)	-12
CO[C@H]1CN(C(=O)OC(C)(C)C)CC1NCc1ccco1 (stereo partly drawn)	-24.9
CO[C@H]1CN(C(=O)OC(C)(C)C)CC1NCc1ccoc1 (stereo partly drawn)	-13.8
CC1CCCN(C(=O)c2ncncc2Cl)C1 (stereo not drawn)	12.9
O=C(c1ccccc1)N1CCCN(C(=O)c2ncncc2Cl)CC1	15.9
COCc1ccccc1C(=O)NCCCN1CCCC1C(=O)N(C)C (stereo not drawn)	7.28
COc1ncccc1C(=O)NCC1Cc2ccccc2O1 (stereo not drawn)	-6.43
O=C(NCCCn1nc2ccccn2c1=O)NC1CCC(O)CC1 (stereo not drawn)	9.94
CC(C)S(=O)(=O)NCC1CCCN(C(=O)c2cccnc2)C1 (stereo not drawn)	-7.06
Cc1cccc(CNCc2c(C)nn(C)c2N2CCOCC2)n1	-2.64
O=C(CCc1nccs1)N1CCCC(N2CCNC2=O)C1 (stereo not drawn)	0.762
Cc1cc(N2CCC(N(C)C(=O)c3ccccc3)CC2)nc(C)n1	-0.672
CN(C)C(CNC(=O)c1cccc(-n2cnnn2)c1)c1ccccc1Cl (stereo not drawn)	-2.81
Cc1csc(N2CCN(Cc3cnc(C)s3)CC2C)n1 (stereo not drawn)	-2.09
CCc1ccc(C(=O)Nc2ccc(CC3CC(=O)NC3=O)cc2)cc1 (stereo not drawn)	1.34

Compound	cytotoxicity at 70.5 h [%]
CCCC(C)(C)NC(=O)c1ccc(CC2CC(=O)NC2=O)cc1 (stereo not drawn)	0.713
Cc1cn(-c2ccccc2)nc1NS(=O)(=O)c1cccc(C(=O)O)c1	-1.1
CC1CN(C)c2ccccc2CN1C(=O)CSc1ccncc1 (stereo not drawn)	1.51
CCN1CCCC1CN(CCN(C)C)S(=O)(=O)c1ccc(C#N)cc1 (stereo not drawn)	2.57
CCN(Cc1cccnc1)CC1CCCO1 (stereo not drawn)	-0.83
Cc1cnn(CC2CN(CCc3ccncc3)CCO2)c1 (stereo not drawn)	0.973
Cc1nc(C)n(CC2CN(CCc3ccncc3)CCO2)n1 (stereo not drawn)	-0.163
C1CCCN(c2nc(C3CC3)ns2)CC1	15.3
CCc1nc(C2CCCN2CC(=O)Nc2c(C)nn(C)c2C)no1 (stereo not drawn)	-3.18
Cc1nc(C)n(CC2CCCN2CC(=O)NCc2ccco2)n1 (stereo not drawn)	-2.21
Cc1n[nH]c(C)c1C1COCCN1C(=O)Cc1cccc(F)c1 (stereo not drawn)	-4.4
Cc1n[nH]c(C)c1C1CCCN1C(=O)NCCSC(C)(C)C (stereo not drawn)	-7.87
Cc1csc(N2CCN(CCc3ccccn3)CC2C)n1 (stereo not drawn)	-10.7
CCCN1CCN(Cc2nccn2CC)C(C)C1 (stereo not drawn)	19.6
O=C(C1CCC1)N1CCCC1c1nnc2n1CCCCC2 (stereo not drawn)	9.95
O=C(NCCCOCC1CCCO1)c1cccnc1N1CCCC1 (stereo not drawn)	1.79
Cc1cccc(N2CCN(CCNC(=O)c3ccnn3C)CC2)c1	-9.52
CCN(CC)C(CNC(=O)c1ccc(S(C)(=O)=O)cc1)c1ccco1 (stereo not drawn)	-0.309
Cc1nc(C)c(C(=O)N2CCCC2c2nnc3n2CCCCC3)s1 (stereo not drawn)	-8.07
c1cnn(CC2CN(c3ncnc4ccsc34)CCO2)c1 (stereo not drawn)	-0.0557
COc1cccc(CN2CCOC(Cn3nc(C)cc3C)C2)c1 (stereo not drawn)	-6.54
c1cnn(CC2CN(c3ncnc4sccc34)CCO2)c1 (stereo not drawn)	-4.77
Cc1cnn(CC2CN(c3ncnc4ccsc34)CCO2)c1 (stereo not drawn)	16

Compound	cytotoxicity at 70.5 h [%]
CC(C)n1cc(CN2CCCN(C(=O)c3ccc[nH]3)CC2)cn1	-5.05
O=C(CC1CN(Cc2ccccc2)CCO1)Nc1ccccc1F (stereo not drawn)	-3.6
CNc1cc(N2CCCC2CNCc2c[nH]nc2C(C)(C)C)ncn1 (stereo not drawn)	0.0673
Cn1ccnc1CC1CCCN(C(=O)Nc2cccn(C)c2=O)C1 (stereo not drawn)	-2.41
O=C(NCCOc1ncc(Cl)cc1Cl)c1ccncc1	1.47
Cc1ccc(CCNC(=O)N2CCCC(Cc3nccn3C)C2)cn1 (stereo not drawn)	1.34
Cc1cccc(N2CCOCC3(C2)CN(c2cncnc2)C(=O)CO3)n1 (stereo not drawn)	-6.08
CCOC1CCC2(CCN(C(=O)c3c[nH]cn3)CC2)c2ccccc21 (stereo not drawn)	-6.3
CCc1ccc(NC(=O)N2C[C@H]3C[C@H](C(=O)NC(C)C)[C@@H](C2)O3)cc1	-7.8
O=C(c1ccc[nH]1)N1CCCn2c(nnc2Cn2cccn2)C1	-9.08
Cc1ncnc2c1CCN(C(=O)N(C)C)CC2	-0.115
CS(=O)(=O)N1CCO[C@@H]2CN(C(=O)C3CCOC3)CC[C@@H]2C1 (stereo partly drawn)	-6.14
CS(=O)(=O)N1CCO[C@@H]2CN(C(=O)N3CCOCC3)CC[C@@H]2C1	-6.09
Cc1nc(CN2C(=O)CCC23CCN(Cc2ccco2)CC3)cs1	-1.31
CN1CCC2(CC1)CN(C(=O)c1ccncc1)Cc1ccccc12	-2.21
CC(=O)N1CC[C@H]2OCC[C@@H](C(=O)NCc3ccco3)[C@@H]2C1	26.4
CC(C)NC(=O)N1CC[C@@H]2CN(Cc3ccccc3)S(=O)(=O)[C@@H]2CC1	18.6
CC(C)NC(=O)N1CCC2(COCc3cnc(-c4cccnc4)nc32)C1 (stereo not drawn)	-2.99
CO[C@@H]1CC[C@H]2[C@H]1OCCN2C(=O)COc1ccc(F)cc1	-16.9
COCC(=O)NCc1cc(=O)n2c(n1)CN(Cc1ccsc1)CCC2	-12.5
CN(C)C(=O)N1C[C@@H]2COC[C@]2(CNS(C)(=O)=O)C1	-14.4
CNC(=O)N1CC[C@@H]2CN(Cc3cccnc3)S(=O)(=O)[C@@H]2CC1	-17.6
c1coc(CN2C[C@H](OCC3CCOCC3)[C@H]3COC[C@H]32)c1	-15.3

Compound	cytotoxicity at 70.5 h [%]
Cc1ccc2c(c1)C(NC1CC1)CC21CCNCC1 (stereo not drawn)	11
COc1ccc2c(c1)C1(CCNCC1)CC2NC1CC1 (stereo not drawn)	27.2
Cc1ccc2c(c1)C1(CCNCC1)CC2NC1CC1 (stereo not drawn)	2.66
CN1CC[C@]2(CN(CC3CCOC3)C[C@H]2c2ccccc2)C1=O (stereo partly drawn)	16.2
COc1ncccc1CN1C[C@H]2CCN(c3ccc(C)nn3)C[C@H]2C1	20
c1coc(CN2CCO[C@H]3[C@@H](OCC4CC4)CC[C@@H]32)c1	-7.18
CN1CC[C@]2(CN(CC3CCOCC3)C[C@H]2c2ccccc2)C1=O	-7.31
CC(C)N(C)Cc1cc(=O)n2c(n1)CN(S(=O)(=O)C1CC1)CCC2	-7.06
CCOCC1c2c(cnn2C)CCN1C(=O)c1cc(C)on1 (stereo not drawn)	6.2
CCC(=O)Nc1ccc2c(c1)C1(CCOCC1)CN2CCF	16.7
CC(=O)N1Cc2ccnn2CC(C(=O)NCc2cccnc2)C1 (stereo not drawn)	-6.11
COCC(=O)Nc1ccc2c(c1)C1(CCOCC1)CN2CCF	16.5
COCC1CN(Cc2ccc(F)cc2)Cc2nn(C)cc21 (stereo not drawn)	-3
CCO[C@H]1CO[C@@]2(CCCN(S(=O)(=O)c3cccnc3)C2)C1	-11.8
CCN(CC)Cc1cn2c(n1)CN(C(=O)c1cc(C)on1)CC2	-13.3
Cn1cc(CN2CC[C@]3(C[C@H](Oc4ccccn4)CO3)C2)cn1	-6.32
Cn1cc(CN2CCC[C@]3(C[C@H](Oc4ncccc4F)CO3)C2)cn1	-5.41
COCCN1CC[C@@H]2CN(Cc3cccnc3OC)C[C@@H]2C1	13.9
COCCN1CC[C@@H]2CN(Cc3nccn3C)C[C@@H]2C1	8.43
O=C(Cc1ccccn1)N1CCN2C[C@H](Oc3cccc(F)c3)C[C@H]2C1	33.7
FC1(F)CCN(Cc2cccnc2)CC12CCN(c1ccccn1)C2 (stereo not drawn)	-15.1
